Data: ChEMBL document CHEMBL4507320, “Data for DCP probe NVS-MALT1” (2021)

How the values were obtained:
[1] = target: Ephrin type-B receptor 2 (Homo sapiens) (UniProt P29323); details: Compound concentration 1000.0 nM
[2] = target: Serine/threonine-protein kinase B-raf (Homo sapiens) (UniProt P15056); details: Compound concentration 1000.0 nM
[3] = target: Epidermal growth factor receptor (Homo sapiens) (UniProt P00533); details: Compound concentration 1000.0 nM
[4] = target: Tyrosine-protein kinase TXK (Homo sapiens) (UniProt P42681); details: Compound concentration 1000.0 nM
[5] = target: 5'-AMP-activated protein kinase catalytic subunit alpha-1 (Homo sapiens) (UniProt Q13131); details: Compound concentration 1000.0 nM
[6] = target: Myotonin-protein kinase (Homo sapiens) (UniProt Q09013); details: Compound concentration 1000.0 nM
[7] = system: ALK tyrosine kinase receptor (Homo sapiens), Q9UM73 [C1156Y]; details: Compound concentration 1000.0 nM
[8] = target: Dual specificity mitogen-activated protein kinase kinase 1 (Homo sapiens) (UniProt Q02750); details: Compound concentration 1000.0 nM
[9] = target: Serine/threonine-protein kinase NLK (Homo sapiens) (UniProt Q9UBE8); details: Compound concentration 1000.0 nM
[10] = target: Rhodopsin kinase GRK1 (Homo sapiens) (UniProt Q15835); details: Compound concentration 1000.0 nM
[11] = target: Serine/threonine-protein kinase Nek11 (Homo sapiens) (UniProt Q8NG66); details: Compound concentration 1000.0 nM
Chain of Serine/threonine-protein kinase Nek11 (Homo sapiens) (Q8NG66 whole entry): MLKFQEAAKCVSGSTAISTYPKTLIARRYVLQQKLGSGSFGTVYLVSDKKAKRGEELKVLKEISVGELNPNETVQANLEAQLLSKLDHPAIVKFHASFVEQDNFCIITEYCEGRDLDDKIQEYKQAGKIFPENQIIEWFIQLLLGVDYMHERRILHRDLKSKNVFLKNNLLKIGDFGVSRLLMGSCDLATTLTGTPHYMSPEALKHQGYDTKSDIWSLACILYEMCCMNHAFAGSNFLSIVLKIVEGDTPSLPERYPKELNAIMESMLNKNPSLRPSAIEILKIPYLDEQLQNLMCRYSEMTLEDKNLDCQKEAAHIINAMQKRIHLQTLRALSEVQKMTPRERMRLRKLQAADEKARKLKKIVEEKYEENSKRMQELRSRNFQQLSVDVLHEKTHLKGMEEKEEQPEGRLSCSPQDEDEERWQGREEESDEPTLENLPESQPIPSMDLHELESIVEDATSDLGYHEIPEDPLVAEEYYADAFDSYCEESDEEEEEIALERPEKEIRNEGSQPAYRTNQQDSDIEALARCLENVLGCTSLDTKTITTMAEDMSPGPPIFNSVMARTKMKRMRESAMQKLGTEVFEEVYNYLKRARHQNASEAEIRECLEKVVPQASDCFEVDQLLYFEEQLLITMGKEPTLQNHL

[12] = target: Serine/threonine-protein kinase BRSK1 (Homo sapiens) (UniProt Q8TDC3); details: Compound concentration 1000.0 nM
[13] = system: Tyrosine-protein kinase ABL1 (Homo sapiens), P00519 [Y253F]; details: Compound concentration 1000.0 nM
[14] = target: ALK tyrosine kinase receptor (Homo sapiens) (UniProt Q9UM73); details: Compound concentration 1000.0 nM
[15] = target: Casein kinase I isoform delta (Homo sapiens) (UniProt P48730); details: Compound concentration 1000.0 nM
[16] = target: Hepatocyte growth factor receptor (Homo sapiens) (UniProt P08581); details: Compound concentration 1000.0 nM
[17] = target: Serine/threonine-protein kinase N2 (Homo sapiens) (UniProt Q16513); details: Compound concentration 1000.0 nM
Chain of Serine/threonine-protein kinase N2 (Homo sapiens) (Q16513 whole entry, looked up): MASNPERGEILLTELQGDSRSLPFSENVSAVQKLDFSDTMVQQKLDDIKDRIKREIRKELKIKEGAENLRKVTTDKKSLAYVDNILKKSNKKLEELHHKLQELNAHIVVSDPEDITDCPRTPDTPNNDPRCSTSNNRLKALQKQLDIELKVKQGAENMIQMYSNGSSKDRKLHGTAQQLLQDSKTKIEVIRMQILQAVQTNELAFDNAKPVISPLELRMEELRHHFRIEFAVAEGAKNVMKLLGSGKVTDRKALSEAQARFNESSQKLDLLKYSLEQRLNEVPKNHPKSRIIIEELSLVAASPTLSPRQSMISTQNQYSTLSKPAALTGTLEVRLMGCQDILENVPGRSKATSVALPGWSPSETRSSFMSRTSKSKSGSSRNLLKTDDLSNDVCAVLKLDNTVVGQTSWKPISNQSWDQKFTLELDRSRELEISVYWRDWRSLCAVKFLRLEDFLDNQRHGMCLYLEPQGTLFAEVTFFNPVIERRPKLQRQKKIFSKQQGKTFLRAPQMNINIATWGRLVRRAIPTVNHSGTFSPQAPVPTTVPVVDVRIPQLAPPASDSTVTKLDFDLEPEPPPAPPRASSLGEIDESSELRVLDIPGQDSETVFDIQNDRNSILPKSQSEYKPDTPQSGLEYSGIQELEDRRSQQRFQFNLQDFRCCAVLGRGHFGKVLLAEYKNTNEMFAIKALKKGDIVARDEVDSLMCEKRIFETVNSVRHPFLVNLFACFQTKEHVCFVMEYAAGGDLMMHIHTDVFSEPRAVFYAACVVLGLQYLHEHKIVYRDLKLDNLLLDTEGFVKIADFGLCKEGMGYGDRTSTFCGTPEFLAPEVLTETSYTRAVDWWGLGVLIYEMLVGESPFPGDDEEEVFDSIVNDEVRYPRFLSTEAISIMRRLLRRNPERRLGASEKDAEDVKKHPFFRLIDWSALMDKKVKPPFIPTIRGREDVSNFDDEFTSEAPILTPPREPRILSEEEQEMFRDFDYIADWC

[18] = system: Tyrosine-protein kinase ABL1 (Homo sapiens), P00519 [M351T]; details: Compound concentration 1000.0 nM
[19] = system: Tyrosine-protein kinase ABL1 (Homo sapiens), P00519 [Q252H]; details: Compound concentration 1000.0 nM
[20] = target: Serine/threonine-protein kinase WNK1 (Homo sapiens) (UniProt Q9H4A3); details: Compound concentration 1000.0 nM
[21] = system: Epidermal growth factor receptor (Homo sapiens), P00533 [L861Q]; details: Compound concentration 1000.0 nM
[22] = target: Activin receptor type-1B (Homo sapiens) (UniProt P36896); details: Compound concentration 1000.0 nM
[23] = target: Receptor-interacting serine/threonine-protein kinase 4 (Homo sapiens) (UniProt P57078); details: Compound concentration 1000.0 nM
[24] = target: Proto-oncogene tyrosine-protein kinase ROS (Homo sapiens) (UniProt P08922); details: Compound concentration 1000.0 nM
Chain of Proto-oncogene tyrosine-protein kinase ROS (Homo sapiens) (P08922 whole entry): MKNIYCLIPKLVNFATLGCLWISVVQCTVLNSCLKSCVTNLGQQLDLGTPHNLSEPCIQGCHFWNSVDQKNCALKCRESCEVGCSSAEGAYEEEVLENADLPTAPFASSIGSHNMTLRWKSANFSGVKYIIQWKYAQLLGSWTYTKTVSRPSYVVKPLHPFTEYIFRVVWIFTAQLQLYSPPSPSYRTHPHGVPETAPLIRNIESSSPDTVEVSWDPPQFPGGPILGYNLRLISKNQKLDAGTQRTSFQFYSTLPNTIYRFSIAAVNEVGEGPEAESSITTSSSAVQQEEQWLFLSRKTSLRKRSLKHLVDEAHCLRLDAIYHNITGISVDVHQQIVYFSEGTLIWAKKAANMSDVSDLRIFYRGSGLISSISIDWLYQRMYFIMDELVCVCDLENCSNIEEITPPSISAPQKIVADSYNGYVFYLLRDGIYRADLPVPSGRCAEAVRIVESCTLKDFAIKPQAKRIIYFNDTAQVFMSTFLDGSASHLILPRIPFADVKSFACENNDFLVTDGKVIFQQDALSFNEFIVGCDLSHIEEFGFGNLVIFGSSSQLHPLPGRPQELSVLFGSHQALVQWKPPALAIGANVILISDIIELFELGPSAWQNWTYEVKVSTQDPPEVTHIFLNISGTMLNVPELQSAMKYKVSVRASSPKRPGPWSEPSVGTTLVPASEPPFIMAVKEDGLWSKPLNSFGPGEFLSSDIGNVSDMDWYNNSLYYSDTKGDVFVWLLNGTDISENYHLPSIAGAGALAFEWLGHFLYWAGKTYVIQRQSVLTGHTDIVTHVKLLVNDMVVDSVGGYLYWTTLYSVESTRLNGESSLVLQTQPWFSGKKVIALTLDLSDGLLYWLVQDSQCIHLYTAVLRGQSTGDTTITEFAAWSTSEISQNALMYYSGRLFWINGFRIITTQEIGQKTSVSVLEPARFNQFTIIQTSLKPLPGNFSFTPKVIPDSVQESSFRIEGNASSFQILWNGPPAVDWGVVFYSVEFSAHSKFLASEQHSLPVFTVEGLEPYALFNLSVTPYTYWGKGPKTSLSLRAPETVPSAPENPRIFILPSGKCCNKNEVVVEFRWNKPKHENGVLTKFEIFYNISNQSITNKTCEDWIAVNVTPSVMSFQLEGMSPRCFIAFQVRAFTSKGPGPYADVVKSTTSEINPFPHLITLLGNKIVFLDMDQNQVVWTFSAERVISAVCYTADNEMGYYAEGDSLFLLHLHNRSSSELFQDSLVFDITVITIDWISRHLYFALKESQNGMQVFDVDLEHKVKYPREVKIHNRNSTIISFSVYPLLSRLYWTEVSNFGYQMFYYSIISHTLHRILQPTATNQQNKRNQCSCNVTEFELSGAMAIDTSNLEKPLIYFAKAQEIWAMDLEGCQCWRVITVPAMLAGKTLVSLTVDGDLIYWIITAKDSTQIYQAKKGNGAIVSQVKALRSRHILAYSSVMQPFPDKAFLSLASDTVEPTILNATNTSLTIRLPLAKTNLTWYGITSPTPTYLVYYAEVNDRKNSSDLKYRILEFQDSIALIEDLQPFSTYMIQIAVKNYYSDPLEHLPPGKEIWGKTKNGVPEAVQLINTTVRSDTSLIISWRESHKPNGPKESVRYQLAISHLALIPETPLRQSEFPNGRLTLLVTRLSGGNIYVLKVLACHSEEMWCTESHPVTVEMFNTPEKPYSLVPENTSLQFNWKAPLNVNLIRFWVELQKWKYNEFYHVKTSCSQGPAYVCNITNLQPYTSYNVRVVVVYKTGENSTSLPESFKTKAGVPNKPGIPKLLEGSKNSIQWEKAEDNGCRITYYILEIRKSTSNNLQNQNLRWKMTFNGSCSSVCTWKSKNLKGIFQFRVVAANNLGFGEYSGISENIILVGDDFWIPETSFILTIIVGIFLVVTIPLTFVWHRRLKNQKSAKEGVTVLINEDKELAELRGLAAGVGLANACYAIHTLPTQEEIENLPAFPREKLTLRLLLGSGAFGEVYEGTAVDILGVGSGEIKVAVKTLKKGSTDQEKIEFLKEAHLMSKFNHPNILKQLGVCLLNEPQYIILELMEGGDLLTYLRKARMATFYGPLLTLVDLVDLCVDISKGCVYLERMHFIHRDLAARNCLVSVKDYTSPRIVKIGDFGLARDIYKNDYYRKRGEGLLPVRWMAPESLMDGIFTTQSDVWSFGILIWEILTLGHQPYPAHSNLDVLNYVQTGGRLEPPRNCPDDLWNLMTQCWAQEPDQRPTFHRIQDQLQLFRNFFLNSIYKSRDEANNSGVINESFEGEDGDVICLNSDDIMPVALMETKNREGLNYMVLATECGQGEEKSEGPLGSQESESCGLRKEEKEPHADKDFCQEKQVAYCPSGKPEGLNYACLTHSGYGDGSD

[25] = target: GABA-A receptor; anion channel (Rattus norvegicus) (UniProt O09028+P15431+P18506+P18508+P19969+P20236+P23574+P23576+P28471+P28473+P30191+P62813+P63079+P63138+Q91ZM7+Q9ES14); details: Compound concentration 10.0 uM
[26] = target: Casein kinase I isoform gamma-2 (Homo sapiens) (UniProt P78368); details: Compound concentration 1000.0 nM
[27] = target: Alpha-2A adrenergic receptor (Homo sapiens) (UniProt P08913); details: Compound concentration 10.0 uM
Chain of Alpha-2A adrenergic receptor (Homo sapiens) (P08913 whole entry): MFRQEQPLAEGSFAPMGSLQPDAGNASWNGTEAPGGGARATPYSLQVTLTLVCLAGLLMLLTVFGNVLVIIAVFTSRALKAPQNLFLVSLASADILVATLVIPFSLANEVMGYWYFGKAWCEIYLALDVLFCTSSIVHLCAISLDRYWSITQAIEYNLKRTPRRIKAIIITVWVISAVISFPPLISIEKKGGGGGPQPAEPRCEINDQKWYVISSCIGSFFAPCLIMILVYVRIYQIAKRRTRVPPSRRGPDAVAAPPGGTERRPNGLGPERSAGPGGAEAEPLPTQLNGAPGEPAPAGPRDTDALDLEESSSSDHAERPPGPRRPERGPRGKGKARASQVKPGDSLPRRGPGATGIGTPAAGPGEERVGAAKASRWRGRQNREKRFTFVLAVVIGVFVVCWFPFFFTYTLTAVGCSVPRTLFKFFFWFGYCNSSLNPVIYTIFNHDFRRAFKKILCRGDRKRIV

[28] = target: Serine/threonine-protein kinase SIK1 (Homo sapiens) (UniProt P57059); details: Compound concentration 1000.0 nM
[29] = target: cAMP-dependent protein kinase catalytic subunit alpha (Homo sapiens) (UniProt P17612); details: Compound concentration 1000.0 nM
[30] = target: Mitogen-activated protein kinase kinase kinase 12 (Homo sapiens) (UniProt Q12852); details: Compound concentration 1000.0 nM
[31] = target: Cyclin-dependent kinase-like 5 (Homo sapiens) (UniProt O76039); details: Compound concentration 1000.0 nM
[32] = target: Serine/threonine-protein kinase 17A (Homo sapiens) (UniProt Q9UEE5); details: Compound concentration 1000.0 nM
[33] = target: Serine/threonine-protein kinase D2 (Homo sapiens) (UniProt Q9BZL6); details: Compound concentration 1000.0 nM
[34] = system: Tyrosine-protein kinase ABL1 (Homo sapiens), P00519 [E255K]; details: Compound concentration 1000.0 nM
[35] = target: Phosphatidylinositol 4,5-bisphosphate 3-kinase catalytic subunit delta isoform (Homo sapiens) (UniProt O00329); details: Compound concentration 1000.0 nM
[36] = system: Epidermal growth factor receptor (Homo sapiens), P00533 [UNDEFINED MUTATION]; details: Compound concentration 1000.0 nM
[37] = target: Rhodopsin kinase GRK7 (Homo sapiens) (UniProt Q8WTQ7); details: Compound concentration 1000.0 nM
[38] = target: Calcium/calmodulin-dependent protein kinase type 1 (Homo sapiens) (UniProt Q14012); details: Compound concentration 1000.0 nM
[39] = target: Tyrosine-protein kinase JAK1 (Homo sapiens) (UniProt P23458); details: Compound concentration 1000.0 nM
[40] = target: Cyclin-dependent kinase 13 (Homo sapiens) (UniProt Q14004); details: Compound concentration 1000.0 nM
[41] = system: Phosphatidylinositol 4,5-bisphosphate 3-kinase catalytic subunit alpha isoform (Homo sapiens), P42336 [E542K]; details: Compound concentration 1000.0 nM
[42] = system: Tyrosine-protein kinase ABL1 (Homo sapiens), P00519 [H396P]; details: Compound concentration 1000.0 nM
[43] = target: Mitogen-activated protein kinase 4 (Homo sapiens) (UniProt P31152); details: Compound concentration 1000.0 nM
Chain of Mitogen-activated protein kinase 4 (Homo sapiens) (P31152 whole entry): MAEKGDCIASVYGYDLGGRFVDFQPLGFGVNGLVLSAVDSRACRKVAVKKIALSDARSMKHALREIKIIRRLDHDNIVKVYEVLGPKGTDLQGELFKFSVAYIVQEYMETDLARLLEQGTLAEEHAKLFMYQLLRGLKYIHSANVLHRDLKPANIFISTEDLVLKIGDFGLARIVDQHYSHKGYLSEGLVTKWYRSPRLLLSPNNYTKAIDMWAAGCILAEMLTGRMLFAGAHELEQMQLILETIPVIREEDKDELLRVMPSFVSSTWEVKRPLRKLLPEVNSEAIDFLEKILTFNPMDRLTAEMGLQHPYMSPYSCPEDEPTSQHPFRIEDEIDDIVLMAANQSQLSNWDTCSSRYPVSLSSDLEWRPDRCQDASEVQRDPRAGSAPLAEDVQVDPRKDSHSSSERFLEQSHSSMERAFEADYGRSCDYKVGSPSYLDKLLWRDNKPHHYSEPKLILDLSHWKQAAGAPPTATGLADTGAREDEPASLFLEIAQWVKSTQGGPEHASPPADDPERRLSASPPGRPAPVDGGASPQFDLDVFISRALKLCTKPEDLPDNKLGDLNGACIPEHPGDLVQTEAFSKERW

[44] = target: Sodium-dependent serotonin transporter (Homo sapiens) (UniProt P31645); details: Compound concentration 10.0 uM

CO[C@@H](C)c1c(Nc2ccc([C@@H](N(C)C(=O)C3CCS(=O)(=O)CC3)C(F)(F)F)cc2)cnc2cc(Cl)nn12 [NVS-MALT1-C]
inactive: residual activity [1] 92% | residual activity [2] 76% | residual activity [3] 95% | residual activity [4] 84% | residual activity [5] 92% | residual activity [6] 91% | residual activity [7] 79% | residual activity [8] 100% | residual activity [9] 84% | residual activity [10] 86% | residual activity [11] 100% | residual activity [12] 93% | residual activity [13] 100% | residual activity [14] 100% | residual activity [15] 100% | residual activity [16] 85% | residual activity [17] 88% | residual activity [18] 59% | residual activity [19] 100% | residual activity [20] 98% | residual activity [21] 100% | residual activity [22] 100% | residual activity [23] 100% | residual activity [24] 82% | inhibition [25] 20.8% | residual activity [26] 84% | inhibition [27] 5.1% | residual activity [28] 85% | residual activity [29] 87% | residual activity [30] 100% | residual activity [31] 89% | residual activity [32] 90% | residual activity [33] 86% | residual activity [34] 75% | residual activity [35] 87% | residual activity [36] 100% | residual activity [37] 100% | residual activity [38] 82% | residual activity [39] 90% | residual activity [40] 100% | residual activity [41] 78% | residual activity [42] 98% | residual activity [43] 100% | inhibition [44] 14.6%

CO[C@@H](C)c1c(Nc2ccc([C@H](N(C)C(=O)C3CCS(=O)(=O)CC3)C(F)(F)F)cc2)cnc2cc(Cl)nn12 [NVS-MALT1]
inactive: residual activity [1] 76% | residual activity [2] 85% | residual activity [3] 93% | residual activity [4] 87% | residual activity [5] 99% | residual activity [6] 84% | residual activity [7] 89% | residual activity [8] 100% | residual activity [9] 83% | residual activity [10] 82% | residual activity [11] 100% | residual activity [12] 78% | residual activity [13] 100% | residual activity [14] 100% | residual activity [15] 88% | residual activity [16] 100% | residual activity [17] 100% | residual activity [18] 65% | residual activity [19] 100% | residual activity [20] 100% | residual activity [21] 100% | residual activity [22] 72% | residual activity [23] 76% | residual activity [24] 77% | inhibition [25] 21.3% | residual activity [26] 93% | inhibition [27] 14.6% | residual activity [28] 87% | residual activity [29] 90% | residual activity [30] 100% | residual activity [31] 95% | residual activity [32] 87% | residual activity [33] 83% | residual activity [34] 76% | residual activity [35] 98% | residual activity [36] 98% | residual activity [37] 100% | residual activity [38] 66% | residual activity [39] 91% | residual activity [40] 100% | residual activity [41] 71% | residual activity [42] 100% | residual activity [43] 94% | inhibition [44] 11.3%
